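Protocol summary: plate cells (96-well), add compound at 5 concentrations, incubate 48 h, interpolate endpoints linearly. GI50: concentration for 50% inhibition of growth. TGI: total growth inhibition.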
Key:
Test in all cases: inhibition of tumour cell growth, NCI panel, 48 h
SK-OV-3 ovarian = test system: SK-OV-3 ovarian
TK-10 renal = test system: TK-10 renal
UACC-62 melanoma = test system: UACC-62 melanoma
OVCAR-3 ovarian = test system: OVCAR-3 ovarian
M14 melanoma = test system: M14 melanoma
RXF 393 renal = test system: RXF 393 renal
SF-539 CNS = test system: SF-539 CNS
MCF7 breast = test system: MCF7 breast
NCI/ADR-RES ovarian = test system: NCI/ADR-RES ovarian
T-47D breast = test system: T-47D breast

Compound	TGI (SK-OV-3 ovarian)	TGI (TK-10 renal)	TGI (UACC-62 melanoma)	TGI (OVCAR-3 ovarian)	TGI (M14 melanoma)	TGI (RXF 393 renal)	TGI (SF-539 CNS)	GI50 (SK-OV-3 ovarian)	GI50 (TK-10 renal)	GI50 (UACC-62 melanoma)	GI50 (OVCAR-3 ovarian)	GI50 (MCF7 breast)	TGI (MCF7 breast)	GI50 (M14 melanoma)	GI50 (NCI/ADR-RES ovarian)	TGI (NCI/ADR-RES ovarian)	GI50 (RXF 393 renal)	GI50 (SF-539 CNS)	GI50 (T-47D breast)	TGI (T-47D breast)
COc1ccc(C(=O)O)c(Cc2ccc3ccccc3c2)c1	> 100 µM	> 100 µM	> 100 µM	> 100 µM	> 100 µM	> 100 µM	> 100 µM													
Cc1cc2c(c(N)c1C)C(=O)c1ccccc1C2=O	49.2 µM	93.1 µM	35.5 µM		> 100 µM	> 100 µM	31.5 µM													
CC1CCC23COC(=O)C2C(O)CCC3C1(C)CC(O)c1ccoc1 (stereo not drawn)	> 100 µM	> 100 µM	> 100 µM	> 100 µM	> 100 µM	> 100 µM	> 100 µM													
COC(=O)NN1C(C)=C(C(=O)OC)C2(CCOC2=O)C1(C)O (stereo not drawn)	> 100 µM	> 100 µM	> 100 µM	> 100 µM	> 100 µM		> 100 µM													
COc1ccc(-c2nocc2-c2cc(OC)c(OC)c(OC)c2)cc1	> 82.8 µM	62.7 µM	18.9 µM	0.474 µM	5.82 µM	0.797 µM	20.7 µM	0.142 µM	0.93 µM	0.0489 µM	0.0364 µM	0.0387 µM	> 100 µM	0.054 µM	0.0492 µM	> 61 µM	0.14 µM	0.132 µM		
COc1ccc(Cn2c(Br)c3c(c2-c2cc(OC)c(OC)c(OC)c2)CCc2sc(NC(C)=O)nc2-3)cc1		37.6 µM	> 100 µM	> 100 µM	> 100 µM	10.7 µM	6.79 µM		6.17 µM	4.29 µM	3.63 µM	3.32 µM	> 100 µM	3.57 µM	4.97 µM	> 100 µM	2.24 µM	2.41 µM	4.65 µM	> 100 µM
O=[N+]([O-])c1ccc(-c2cn(-c3ccc(Cl)cc3)cn2)cc1	24.4 µM	67.5 µM	> 100 µM	35.3 µM	> 100 µM								> 100 µM			> 100 µM				> 100 µM
COc1ccc(Nc2ncccc2C(=O)NCc2cn(Cc3cccc(Oc4ccccc4)c3)nn2)cc1	9.63 µM	> 100 µM	> 100 µM	7.59 µM		7.16 µM	6.69 µM	3.11 µM	4.59 µM	3.13 µM	2.98 µM				2.12 µM	6.69 µM	2.59 µM	2.79 µM	4.03 µM	> 100 µM
CCN(CC)CCOc1ccc(C(=C2CCCCC2)c2ccc(OCCN(CC)CC)cc2)cc1	3.52 µM	2.89 µM		3.62 µM	2.91 µM	3.14 µM	2.96 µM													
BrC12c3ccccc3Sc3ccccc3C1(Br)c1ccccc12 (stereo not drawn)	> 100 µM	99.6 µM	46.6 µM		28.8 µM	> 100 µM	34.6 µM													
N#CC1=C(c2ccccc2)C(O)(c2ccccc2)NC1=O (stereo not drawn)	88.9 µM	> 100 µM	> 100 µM	> 100 µM	> 100 µM	> 100 µM	63.3 µM													
CCOC(=O)/C=C/c1ccccn1	> 100 µM	> 100 µM	> 100 µM		> 100 µM		> 100 µM													
CN(C)/C=N/c1nc2ncn(CCOC(=O)c3ccccc3)c2c(=O)[nH]1	> 100 µM	> 100 µM	> 100 µM	> 100 µM	> 100 µM	> 100 µM	> 100 µM													
O=C1C(N2C(=O)c3ccccc3C2=O)CN1C(COCc1ccccc1)c1ccc(OCc2ccccc2)cc1 (stereo not drawn)	> 100 µM	> 100 µM	> 100 µM	> 100 µM	> 100 µM	> 100 µM	> 100 µM													
COc1ccc(/C(C)=N/NC(N)=S)c(OC)c1	> 100 µM	> 100 µM	> 100 µM	> 100 µM	> 100 µM	> 100 µM	> 100 µM													
Oc1cc2c(cc1O)-c1[nH]ncc1CC2	> 100 µM	> 100 µM	90.4 µM		> 100 µM		> 100 µM													
O=C([O-])c1ccccc1Nc1ccccc1[O-].[Ni+3].[OH3+].[OH3+].[OH3+]	> 100 µM		> 100 µM	> 100 µM	> 100 µM	> 100 µM	> 100 µM	> 100 µM		> 100 µM	> 100 µM			> 100 µM			> 100 µM	> 100 µM		
COC(=O)C(Cc1nc2ccccc2[nH]c1=O)C(=O)C(=O)Nc1ccc(OC)cc1[N+](=O)[O-] (stereo not drawn)	> 100 µM	> 100 µM	> 100 µM	> 100 µM	> 100 µM		> 100 µM													
Cc1nc2cc(N)c(Cl)cc2[nH]1	> 100 µM	> 100 µM	> 100 µM	> 100 µM	> 100 µM								> 100 µM			> 100 µM				> 100 µM
O=C(O)C1OC(Oc2cc(O)c3c(=O)cc(-c4ccc(O)cc4)oc3c2)C(O)C(O)C1O (stereo not drawn)		> 100 µM		> 100 µM	> 100 µM		> 100 µM													
CC(O[Si](C)(C)C)C1C=CC(C)n2c(=O)n(-c3ccccc3)c(=O)n21 (stereo not drawn)	> 100 µM	> 100 µM	> 100 µM	> 100 µM	> 100 µM	> 100 µM	> 100 µM													
CCc1ccc(Nc2cc(C)nc3nc(C)nn23)cc1	> 100 µM	> 100 µM	> 100 µM	> 100 µM		> 100 µM	> 100 µM	> 100 µM	61.7 µM	37.7 µM	37.8 µM	36.7 µM	> 100 µM		49.4 µM	> 100 µM	19.3 µM	> 100 µM	21.3 µM	> 100 µM

Compound	TGI (SK-OV-3 ovarian)	TGI (TK-10 renal)	TGI (UACC-62 melanoma)	TGI (OVCAR-3 ovarian)	TGI (M14 melanoma)	TGI (RXF 393 renal)	TGI (SF-539 CNS)	GI50 (SK-OV-3 ovarian)	GI50 (TK-10 renal)	GI50 (UACC-62 melanoma)	GI50 (OVCAR-3 ovarian)	GI50 (MCF7 breast)	TGI (MCF7 breast)	GI50 (M14 melanoma)	GI50 (NCI/ADR-RES ovarian)	TGI (NCI/ADR-RES ovarian)	GI50 (RXF 393 renal)	GI50 (SF-539 CNS)	GI50 (T-47D breast)	TGI (T-47D breast)
CC(C)CC(=O)NS(=O)(=O)c1ccccc1	> 100 µM	> 100 µM	> 100 µM	> 100 µM	> 100 µM	> 100 µM	> 100 µM													
COC(=O)C1C2CCCN2OC1(C)CO (stereo not drawn)	> 100 µM	> 100 µM	> 100 µM	> 100 µM	> 100 µM		> 100 µM						> 100 µM			> 100 µM				> 100 µM
c1ccc(C2N3CCCCC3[C@@H]3c4[nH]c5ccccc5c4CCN23)cc1 (stereo partly drawn)	> 100 µM	> 100 µM	> 100 µM	> 100 µM	> 100 µM	> 100 µM	> 100 µM													
O=CC1(C2(C=O)c3ccccc3-c3ccccc32)c2ccccc2-c2ccccc21		5.51 µM	6.25 µM	3.39 µM			4.37 µM		2.63 µM	2.69 µM	1.4 µM				2.54 µM	6.99 µM		2.01 µM		
CN(C)CCC1(C2=CCCC2)CC/C(=C\c2ccccc2)C1=O (stereo not drawn)		29 µM	26.6 µM	28.5 µM	30.2 µM	26.6 µM	30.5 µM													
CC1(C)OC(=O)C(=C2CC(c3ccccc3)c3ccccc32)C(=O)O1 (stereo not drawn)	> 100 µM	> 100 µM		> 100 µM	> 100 µM	> 100 µM	> 100 µM													
Cc1nn(-c2ccc(Br)cc2)c(C)c1CC(=O)c1cc(O)ccc1O		> 50 µM	11.4 µM	38.8 µM	> 50 µM	27.8 µM	28 µM		15.5 µM	4.24 µM	12.9 µM	6.27 µM	18.8 µM	29.6 µM	11.2 µM	45.6 µM	9.01 µM	11.5 µM		
Oc1cc2ccccc2cc1-c1n[nH]c(=S)n1-c1ccc(Cl)cc1	> 100 µM	63 µM	28.8 µM	> 100 µM	> 100 µM	67.1 µM	50.8 µM	28.6 µM	18.9 µM	7.88 µM	20.3 µM			15.1 µM	13.8 µM	64.1 µM	21.5 µM	15.3 µM	31.6 µM	> 100 µM
O=c1/c(=C/c2ccc3c(c2)OCO3)sc2nnc(-c3ccco3)n12	> 100 µM	> 100 µM	> 100 µM	> 100 µM	> 100 µM	> 100 µM	> 100 µM													
Cc1cccc(NC(=O)CC#N)c1Cl	> 100 µM	> 100 µM	> 100 µM	> 100 µM	> 100 µM		> 100 µM													
O=C1C(Cl)=C(Nc2cccc(O)c2)C(=O)N1c1cccc(Cl)c1Cl	> 100 µM	80 µM	34 µM		31.7 µM	42.4 µM		32.9 µM	20.2 µM	14.6 µM		13.7 µM	42.7 µM	14.8 µM	18.9 µM	46 µM	18.4 µM		16.8 µM	86.3 µM
CCCN1CCN(c2ccc3nc(-c4ccc5nc(-c6ccc(OCC)c(OCC)c6)[nH]c5c4)[nH]c3c2)CC1	7.54 µM	4.13 µM	1.87 µM	0.622 µM	1.39 µM	0.83 µM	2.05 µM	1.6 µM	1.3 µM	0.348 µM	0.258 µM			0.195 µM	> 100 µM	> 100 µM	0.27 µM	0.724 µM	0.428 µM	5.66 µM
COc1ccc(C#CCC(OC2OC(CO)C(O)C(O)C2O)C(O)c2ccc(OC)c(OC)c2)cc1OC (stereo not drawn)	> 100 µM		> 100 µM	> 100 µM	> 100 µM	> 100 µM	> 100 µM													
CC([O-])C(=O)[O-].NCC1CCC1CN.[Pt+4] (stereo not drawn)	> 10 µM	> 10 µM	> 10 µM	> 10 µM	> 10 µM		> 10 µM	> 10 µM	> 10 µM	6.87 µM	> 10 µM	6.89 µM	> 10 µM	> 10 µM	> 10 µM	> 10 µM		> 10 µM	> 10 µM	> 10 µM
CCC/C(=N\NC(=O)c1cc2ccccc2cc1O)C(CC)C(=O)CCC(=O)N(Cc1ccccc1)Cc1ccccc1 (stereo not drawn)	> 100 µM	> 100 µM	70 µM	> 100 µM	> 100 µM	> 100 µM	> 100 µM													
O=C(c1ccc2c3c(ccc(C(=O)C(F)(F)F)c13)CC2)C(F)(F)F	> 100 µM	> 100 µM	> 100 µM	> 100 µM	> 100 µM	> 100 µM	> 100 µM													
Cc1cc2c(cc1C)[n+](=O)c(C(=O)/C=C/c1ccccc1Cl)c(C)n2[O-]	73.1 µM	57.3 µM	35.1 µM	88.8 µM	51.7 µM		42.6 µM													
Cc1ccc(C2=C(c3ccccc3)C(O)(c3ccc(C)cc3)C(c3ccccc3)=C2c2ccc(C)cc2)cc1	> 100 µM	> 100 µM	> 100 µM	> 100 µM	> 100 µM		> 100 µM													
COc1cc(-c2cc(CCC(=O)Nc3ccccc3[N+](=O)[O-])n(-c3ccc([N+](=O)[O-])cc3[N+](=O)[O-])n2)ccc1O	> 100 µM	> 100 µM	> 100 µM	> 10 µM	> 100 µM	> 100 µM	> 100 µM	> 100 µM	> 100 µM	> 10 µM				> 100 µM			> 100 µM	> 100 µM		
CCC(/C(=N\Nc1c(Cl)cc(Cl)cc1Cl)c1ccccc1)n1ccnc1C (stereo not drawn)	32.3 µM	28.2 µM	36.7 µM	18.8 µM	28.6 µM		31.1 µM													
CC1=C(C(=O)Nc2ccccc2C)C(c2ccc(C3C(C(=O)Nc4ccccc4C)=CNC=C3C(=O)Nc3ccccc3C)cc2)C(C(=O)Nc2ccccc2C)=C(C)N1	> 58.2 µM	> 100 µM	31.9 µM	39.5 µM	33 µM	85.1 µM	19.6 µM													

Reference: PubChem BioAssay (NCI)
